Experimental data reported in patent US20010044151A1, “Ligands for modulating the expression of exogenous genes via an ecdysone receptor complex” (priority 1998, published 2001).
Where two headings read alike, the source gives them in different places.

Biological target: T1, ecdysteroid receptor complex in Drosophila Kc cell cytosolic extract (Drosophila melanogaster, UniProt P34021)
T1 construct: The supernatant, containing the cytosolic protein extract; endogenous in cells; host or cells: Drosophila Kc167 cells, cytosolic extract
T1 sequence (P34021 1-878): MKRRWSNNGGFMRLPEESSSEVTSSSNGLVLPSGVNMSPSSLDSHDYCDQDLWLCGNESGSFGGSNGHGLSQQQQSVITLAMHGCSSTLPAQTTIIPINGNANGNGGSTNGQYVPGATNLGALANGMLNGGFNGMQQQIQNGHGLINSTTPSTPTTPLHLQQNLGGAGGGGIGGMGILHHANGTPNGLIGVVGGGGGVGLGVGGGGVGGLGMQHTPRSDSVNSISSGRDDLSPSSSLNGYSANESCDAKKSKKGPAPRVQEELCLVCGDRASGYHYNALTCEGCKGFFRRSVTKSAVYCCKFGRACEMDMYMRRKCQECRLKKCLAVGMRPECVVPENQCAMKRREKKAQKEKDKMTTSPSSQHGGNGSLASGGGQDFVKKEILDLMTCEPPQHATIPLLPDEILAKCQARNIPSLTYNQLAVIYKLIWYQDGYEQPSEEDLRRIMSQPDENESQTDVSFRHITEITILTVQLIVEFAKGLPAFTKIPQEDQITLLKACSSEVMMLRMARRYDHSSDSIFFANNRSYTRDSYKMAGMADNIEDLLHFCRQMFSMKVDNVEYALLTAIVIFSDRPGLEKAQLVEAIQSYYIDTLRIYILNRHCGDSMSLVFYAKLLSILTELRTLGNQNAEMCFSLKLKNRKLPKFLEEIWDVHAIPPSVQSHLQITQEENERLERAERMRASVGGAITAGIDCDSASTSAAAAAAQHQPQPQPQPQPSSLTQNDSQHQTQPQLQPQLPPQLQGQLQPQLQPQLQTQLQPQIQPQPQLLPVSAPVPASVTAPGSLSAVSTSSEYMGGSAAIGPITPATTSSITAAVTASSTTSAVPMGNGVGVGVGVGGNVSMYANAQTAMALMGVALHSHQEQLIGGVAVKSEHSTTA
T1 sequence (P20153 1-508 partner): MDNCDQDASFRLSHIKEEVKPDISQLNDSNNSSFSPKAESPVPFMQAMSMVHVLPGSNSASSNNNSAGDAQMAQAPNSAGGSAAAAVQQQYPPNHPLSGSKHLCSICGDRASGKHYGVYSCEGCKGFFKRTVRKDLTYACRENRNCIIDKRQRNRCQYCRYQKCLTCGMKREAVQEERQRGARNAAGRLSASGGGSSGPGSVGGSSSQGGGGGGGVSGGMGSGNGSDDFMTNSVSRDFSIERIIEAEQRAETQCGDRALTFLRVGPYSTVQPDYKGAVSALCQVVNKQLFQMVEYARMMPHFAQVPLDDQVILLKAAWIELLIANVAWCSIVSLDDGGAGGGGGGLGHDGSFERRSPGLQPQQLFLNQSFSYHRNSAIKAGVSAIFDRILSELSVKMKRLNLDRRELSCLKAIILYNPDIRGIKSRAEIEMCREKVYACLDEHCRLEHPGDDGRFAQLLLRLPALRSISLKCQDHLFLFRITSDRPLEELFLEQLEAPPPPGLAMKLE
Assay: Competitive 3H-ponasterone A binding assay, Kc cytosolic ecdysone receptor extract
Conditions: for EC50 / Kc log(1/EC50): Kc cells/extract; for EC50: read-out: Kc log(1/EC50) (converted); for Kd: read-out: Kd for Kc cells
Description: The dipteran cell line Kc167, originally derived from Drosophila embryos (see Echalier, G. and Ohanessian, A. (1969) C. R. Acad. Sci., 268, 1771) was obtained from Dr. Peter Cherbas (Indiana University) and maintained as described (Cherbas, L., et. al., (1994), Methods in Cell Biology, 44, 161-179). A 400 ml culture of Kc Cells (3×10^7 cells per ml) was centrifuged at 700×g for 10 minutes at room temperature to pellet the cells. The supernatant was aspirated and the pellet was resuspended in 70 ml of cold TM buffer (10 mM Tris, 5 mM MgCl2, 1 mM DTT, pH 7.2). After a 10 minute incubation on ice, the cells were centrifuged at 2,300×g. The supernatant was discarded. The cell pellet was frozen at −20° C. for 1 hour. The frozen cell pellet was thawed slowly on ice and homogenized in a cold Potter-Elvehjem homogenizer using a teflon pestle on a Caframo homogenizer motor, at setting 500 with 10 up and down strokes at 4° C. This slurry was centrifuged at 100,000×g in a swinging bucket rotor for 60 minutes. The supernatant, containing the cytosolic protein extract was diluted with T buffer (10 mM Tris, 1 mM DTT, pH 7.2) to a protein concentration of 5 mg/ml. This extract was used immediately for ligand binding assays.
^3H ponasterone A, a potent phytoecdysteroid, (66,000 dpm; specific activity 170 Ci/mmole; NEN Life Science Products, Boston, Mass.) was mixed with 100 μl Kc cytosolic or Plodia nuclear ecdysone receptor extracts in […] glass test tubes in the absence or presence of 10 μM unlabelled 20-hydroxyecdysone (20E) to obtain an estimate of total or non-specific respectively, binding of tritiated ponasterone A. The tubes were vortexed and incubated overnight at 4° C. for Kc cytosolic extracts or 1.5 hours for Plodia nuclear extracts for binding reactions to reach equilibrium. At the end of equilibrium binding times, the bound tritiated ponasterone A was separated from the unbound by addition of ice-cold 600 μl or 300 μl dextran-coated charcoal solution (500 mg of Sigma HCL-washed activated charcoal, 50 mg Pharmacia Dextran T70, 50 ml T-buffer) to Kc or Plodia extracts, respectively. The tubes were vortexed briefly and centrifuged at 7,000×g to pellet the charcoal. The supernatant, 600 μl or 300 μl for Kc or Plodia extract reactions, respectively, containing tritiated ponasterone A bound to proteins, was aspirated into liquid scintillation vials containing 5 ml scintillation cocktail (ReadySafe®, Beckmann) each The mixture was vortexed and the amount of total or non-specifically bound radioactivity measured in a Beckmann LS500 liquid scinitllation counter with a 60% counting efficiency for tritium.
The concentrations of competitors that inhibited 50% of tritiated ponasterone A binding (IC50) was determined by incubating Kc or Plodia nuclear extracts or extracts of bacteria producing CfEcR(CDEF)-GST and CfUSP-GST fusions proteins with ^3H-ponasterone A (66,000 dpm per reaction) in the presence of a range of concentrations (0.1 nM to 10 μM) of test compounds. In the case of binding reactions using bacterial fusion proteins, 20 or one μl extract of bacteria producing CfEcR(CDEF)-GST or CfUSP-GST fusion proteins, respectively, were included per binding reaction. The assay conditions and determination of total and non-specific binding was as described above. The volume of competitor in solvent, like that for 20E or solvent alone, was kept at 1% of total reaction volume by using a 100 fold concentrated stock solution (i.e. a 100 fold dilution of stock solutions). The remainder of the assay was as described above. Each reaction was carried out in duplicate per concentration per test compound. Specific binding of ^3H-ponasterone A was determined by subtracting non-specific binding (that obtained in the presence of 10 μM 20E) from total (no competitor) or competed radioactivity bound. The data for each test compound was analyzed using IGOR Pro software (WaveMetrics, Lake Oswego, Oreg.) to calculate IC50 value. […]

Row | SMILES | EC50 [nM] | Kd (Table 2) [nM] | Kd (Table 3) [nM] | Kc log(1/EC50)
1 | CCc1ccc(C(=O)NN(C(=O)c2cc(C)cc(C)c2)C(C)(C)C)cc1 [CE-1, N-(4-ethylbenzoyl)-N′-(3,5-dimethylbenzoyl)-N′-tert-butyl-hydrazine, reference compound] | 282 | 110 | 192 | 
2 | CC(C)(C)N(NC(=O)c1ccccc1)C(=O)c1ccccc1 [CE-2, 1,2-dibenzoyl-1-tert-butyl-hydrazine, reference compound] | 3020 | 2000 | 2000 | 
3 | CC(C)CC[C@@H](O)[C@](C)(O)[C@H]1CC[C@@]2(O)C3=CC(=O)[C@]4(O)C[C@@H](O)[C@@H](O)C[C@]4(C)[C@H]3[C@H](O)C[C@]12C [CE-3, muristerone A, reference compound] |  | 2.3 | 2 | 7.96
4 | CC(C)CC[C@@H](O)[C@](C)(O)[C@H]1CC[C@@]2(O)C3=CC(=O)[C@@H]4C[C@@H](O)[C@@H](O)C[C@]4(C)[C@H]3CC[C@]12C [CE-4, ponasterone A, reference compound] |  | 0.7 | 0.7 | 
5 | CCc1c(OC)cccc1C(=O)NN(C(=O)c1cccc(OC)c1)C(C)(C)C [Ligand 1] |  | 39.5 | 40 | 7.36
6 | Cc1cc(C)cc(C(=O)N(NC(=O)c2ccc3c(c2C)OCCO3)C(C)(C)C)c1 [Ligand 2] |  | 60 | 47 | 7.16
7 | COc1cccc(C(=O)NN(C(=O)c2cc(C)cc(C)c2)C(C)(C)C)c1C [Ligand 3] |  | 124 | 124 | 6.74
8 | CCc1c(OC)cccc1C(=O)NN(C(=O)c1cc(F)cc(F)c1)C(C)(C)C [Ligand 4] |  | 47 | 26 | 7.41
9 | CCc1c(OC)cccc1C(=O)NN(C(=O)c1cc(C)cc(C)c1)C(C)(C)C [Ligand 5] |  | 13.3 | 13 | 7.70
10 | CCOc1cccc(C(=O)NN(C(=O)c2cc(C)cc(C)c2)C(C)(C)C)c1CC [Ligand 12] |  | 5.3 | 5 | 8.10
11 | CCc1c(OC)cccc1C(=O)NN(C(=O)c1cc(Cl)cc(Cl)c1)C(C)(C)C [Ligand 13] |  | 65 | 24 | 7.44
